In patent US8134015B2, “Compound inhibiting in vivo phosphorous transport and medicine containing the same” (Kyowa Hakko Kirin Co., Ltd., priority 2003, dated 2012) one finds IC50 and inhibition data, which are given here for 25 compounds.

For orientation: IC50 means the concentration that inhibits the measured activity by half. Broadly, the inhibition is the drop in the measured response relative to a control, in per cent.

For one assay, the target named is T1, rat NaPi-2b (Rattus norvegicus, UniProt Q9JJ09).
T1 construct: expressed in transfected cells; host or cells: Xenopus oocytes injected with cRNA
T1 sequence (Q9JJ09 1-695): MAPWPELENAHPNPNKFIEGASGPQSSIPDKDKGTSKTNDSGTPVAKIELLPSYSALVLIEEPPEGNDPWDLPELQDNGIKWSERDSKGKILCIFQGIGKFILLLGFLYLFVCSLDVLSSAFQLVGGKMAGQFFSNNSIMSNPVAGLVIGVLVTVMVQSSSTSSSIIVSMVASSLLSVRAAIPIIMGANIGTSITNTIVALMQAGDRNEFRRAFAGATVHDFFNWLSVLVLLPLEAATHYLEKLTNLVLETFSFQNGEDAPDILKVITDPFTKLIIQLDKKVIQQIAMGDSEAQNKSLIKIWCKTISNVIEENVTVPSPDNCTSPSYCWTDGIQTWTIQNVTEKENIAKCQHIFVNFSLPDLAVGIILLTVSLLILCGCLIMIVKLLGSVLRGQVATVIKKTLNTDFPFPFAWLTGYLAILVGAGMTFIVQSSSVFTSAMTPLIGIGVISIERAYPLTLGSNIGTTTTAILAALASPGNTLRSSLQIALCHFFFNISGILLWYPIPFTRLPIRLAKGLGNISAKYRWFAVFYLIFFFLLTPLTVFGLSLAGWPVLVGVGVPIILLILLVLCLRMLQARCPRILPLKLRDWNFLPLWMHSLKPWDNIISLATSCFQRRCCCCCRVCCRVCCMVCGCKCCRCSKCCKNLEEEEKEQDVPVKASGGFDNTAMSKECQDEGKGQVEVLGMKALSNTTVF
Briefly: Sodium-dependent phosphate uptake of Xenopus oocytes which expressed NaPi-2b (32P). The following applies: Xenopus oocytes expressing rat NaPi-2b, 32P radioactive phosphorus; read-out: IC50 (phosphate uptake inhibitory activity). The assay is classed as cell-based. The method, boiled down: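 Inhibition at 300 μM and 100 μM was read off one inhibition curve of 32P phosphate uptake. Uptake was measured in Xenopus oocytes cultured 2 days after injection of cRNA for cloned rat NaPi-2b.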
As to `CCN(CC)CCN(C)Cc1cccc(C(=O)Nc2ccc(N3CCN(CCO)CC3)cc2C(=O)N/N=C/c2ccc(Cl)c(C(F)(F)F)c2)c1` [Compound 924, N-{2-(4-Chloro-3-trifluoromethyl-benzylidene-hydrazinocarbonyl)-4-[4-(2-hydroxy-ethyl)-piperazin-1-yl]-phenyl}-3-{[(2-diethylamino-ethyl)-methyl-amino]-methyl}-benzamide], the half-inhibitory concentration (IC50) came to 40.2 µM. On the same count and under the same terms, as for `COc1ccc(C(=O)Nc2ccc(Br)cc2C(=O)N/N=C/c2ccccc2F)cc1OC` [Compound 28, N-[4-Bromo-2-(2-fluoro-benzylidene-hydrazinocarbonyl)-phenyl]-3,4-dimethoxy-benzamide], the figure is 5.12 µM. Same read-out and setting: as for `CN(CCO)Cc1cccc(C(=O)Nc2ccc(Cl)cc2C(=O)N/N=C/c2cccc(O)c2)c1` [Compound 402, N-[4-Chloro-2-(3-hydroxy-benzylidene-hydrazinocarbonyl)-phenyl]-3-{[(2-hydroxy-ethyl)-methyl-amino]-methyl}-benzamide], the figure is 14.1 µM. Same read-out and setting: to `CCN(CC)CCN(CCN(CC)CC)Cc1cccc(C(=O)Nc2ccc(N3CCCCC3)cc2C(=O)N/N=C/c2ccc(C)c(C)c2)c1` [Compound 905, 3-{[Bis-(2-diethylamino-ethyl)-amino]-methyl}-N-[2-(3,4-dimethyl-benzylidene-hydrazinocarbonyl)-4-piperidin-1-yl-phenyl]-benzamide] belongs 1.18 µM; to `Cc1ccc(/C=N/NC(=O)c2cccnc2NC(=O)c2cccc(CN(CC(C)O)CC(C)O)c2)cc1` (stereo not shown) [Compound 965, 3-{[Bis-(2-hydroxy-propyl)-amino]-methyl}-N-[3-(4-methyl-benzylidene-hydrazinocarbonyl)-pyridin-2-yl]-benzamide], 27.2 µM. In the case of `O=C(Nc1ccccc1C(=O)N/N=C/c1cccc(F)c1)c1ccncc1` [Compound 134, N-[2-(3-Fluoro-benzylidene-hydrazinocarbonyl)-phenyl]-isonicotinamide], the half-inhibitory concentration (IC50) was 7.82 µM.

Turning to `Cc1ccc(/C=N/NC(=O)c2cc(Cl)ccc2NC(=O)c2cccnc2)cc1` [Compound 187, N-[4-Chloro-2-(4-methyl-benzylidene-hydrazinocarbonyl)-phenyl]-nicotinamide], the half-maximal inhibitory concentration (IC50) came to 7.87 µM. Turning to `Cc1csc(NC(=O)c2cccc(CN3CCC(O)CC3)c2)c1C(=O)N/N=C/c1ccc(F)cc1` [Compound 595, N-[3-(4-Fluoro-benzylidene-hydrazinocarbonyl)-4-methyl-thiophen-2-yl]-3-(4-hydroxy-piperidin-1-ylmethyl)-benzamide], the concentration for half-maximal inhibition (IC50) came to 3.87 µM. With `Cc1ccc(/C=N/NC(=O)c2cc(Cl)ccc2NC(=O)c2cccc(CSCCS(=O)(=O)O)c2)cc1C` [Compound 694, 2-{3-[4-Chloro-2-(3,4-dimethyl-benzylidene-hydrazinocarbonyl)-phenylcarbamoyl]-benzylsulfanyl}-ethanesulfonic acid], the concentration for half-maximal inhibition (IC50) amounted to 38.8 µM. The same measure, in the same setting: to `COc1cc(OC)cc(C(=O)Nc2ccc(Br)cc2C(=O)N/N=C/c2ccc(OC)c(OC)c2)c1` [Compound 128, N-[4-Bromo-2-(3,4-dimethoxy-benzylidene-hydrazinocarbonyl)-phenyl]-3,5-dimethoxy-benzamide] belongs 11.6 µM; to `CCN(CCO)Cc1ccc(C(=O)Nc2ccc(Cl)cc2C(=O)N/N=C/c2cccc(OC)c2)cc1` [Compound 438, N-[4-Chloro-2-(3-methoxy-benzylidene-hydrazinocarbonyl)-phenyl]-4-{[ethyl-(2-hydroxy-ethyl)-amino]-methyl}-benzamide], 26.3 µM; to `COc1ccc(/C=N/NC(=O)c2c(C)csc2NC(=O)c2cccc(CN(C)C)c2)cc1` [Compound 825, 3-Dimethylaminomethyl-N-[3-(4-methoxy-benzylidene-hydrazinocarbonyl)-4-methyl-thiophen-2-yl]-benzamide], 4.52 µM. The same measure, in the same setting: as for `CCN(CC)CCN(C)Cc1cccc(C(=O)Nc2scc(C)c2C(=O)N/N=C/c2ccc(F)cc2)c1` [Compound 565, 3-{[(2-Diethylamino-ethyl)-methyl-amino]-methyl}-N-[3-(4-fluoro-benzylidene-hydrazinocarbonyl)-4-methyl-thiophen-2-yl]-benzamide], the figure is 13 µM. Take `CCN(CCO)Cc1cccc(C(=O)Nc2ccc(Cl)cc2C(=O)N/N=C/c2ccc(F)cc2)c1` [Compound 423, N-[4-Chloro-2-(4-fluoro-benzylidene-hydrazinocarbonyl)-phenyl]-3-{[ethyl-(2-hydroxy-ethyl)-amino]-methyl}-benzamide]: the half-maximal inhibitory concentration (IC50) is under 3 µM. On the same count and under the same terms, to `CCN1CC(NCc2ccc(-c3nc4ccc(Br)cc4c(=O)n3/N=C/c3ccc(Cl)c(C(F)(F)F)c3)cc2)CN1CC` [Compound 753, 6-Bromo-3-[(4-chloro-3-trifluoromethyl-benzylidene)-amino]-2-{4-[(1,2-diethyl-pyrazolidin-4-ylamino)-methyl]-phenyl}-3H-quinazolin-4-one] belongs 12.4 µM. In the case of `CCN(CC)CCNCc1ccc(C(=O)Nc2ccc(Br)cc2C(=O)N/N=C/c2cccc(OC)c2)cc1` [Compound 299, N-[4-Bromo-2-(3-methoxy-benzylidene-hydrazinocarbonyl)-phenyl]-4-[(2-diethylamino-ethylamino)-methyl]-benzamide], the IC50 came out at 3.91 µM. Same read-out and setting: to `CC(O)CN(Cc1cccc(C(=O)Nc2cscc2C(=O)N/N=C/c2cccc(F)c2)c1)CC(C)O` (stereo not shown) [Compound 974, 3-{[Bis-(2-hydroxy-propyl)-amino]-methyl}-N-[4-(3-fluoro-benzylidene-hydrazinocarbonyl)-thiophen-3-yl]-benzamide] belongs 12.6 µM; to `O=C(Nc1ccc(Cl)cc1C(=O)N/N=C/c1cccc(F)c1)c1cccc(CSc2nc[nH]n2)c1` [Compound 389, N-[4-Chloro-2-(3-fluoro-benzylidene-hydrazinocarbonyl)-phenyl]-3-(1H-[1,2,4]triazol-3-ylsulfanylmethyl)-benzamide], 1.09 µM. On the same count and under the same terms, to `COc1ccc(/C=N/n2c(-c3cccc(CSc4nc[nH]n4)c3)nc3sc4c(c3c2=O)CCCC4)cc1` [Compound 651, 3-[(4-Methoxy-benzylidene)-amino]-2-[3-(1H-[1,2,4]triazol-3-ylsulfanylmethyl)-phenyl]-5,6,7,8-tetrahydro-3H-benzo[4,5]thieno[2,3-d]pyrimidin-4-one] belongs 263 µM; to `Cc1ccc(/C=N/NC(=O)c2cc3ccccc3cc2NC(=O)c2cccc(CN3CCN(CCO)CC3)c2)cc1C` [Compound 971, N-[3-(3,4-Dimethyl-benzylidene-hydrazinocarbonyl)-naphthalen-2-yl]-3-[4-(2-hydroxy-ethyl)-piperazin-1-ylmethyl]-benzamide], under 3 µM; to `O=C(Nc1ccc(Br)cc1C(=O)N/N=C/c1cccc(F)c1)c1ccncc1` [Compound 166, N-[4-Bromo-2-(3-fluoro-benzylidene-hydrazinocarbonyl)-phenyl]-isonicotinamide], 27.9 µM.

Staying with this assay, now noted: phosphate uptake, oocytes expressing rat NaPi-2b; 100 μM, determined from inhibition curve.
`O=C(Nc1ccc(N2CCC(CO)CC2)cc1C(=O)N/N=C/c1ccc(Cl)c(C(F)(F)F)c1)c1cccc(CSCCO)c1` [Compound 1063, N-[2-(4-Chloro-3-trifluoromethyl-benzylidene-hydrazinocarbonyl)-4-(4-hydroxymethyl-piperidin-1-yl)-phenyl]-3-(2-hydroxy-ethylsulfanylmethyl)-benzamide] yielded an inhibition at 100 µM of 63.9%.

Still in this assay, the particulars now being: phosphate uptake, oocytes expressing rat NaPi-2b; 300 μM, determined from inhibition curve.
`Cc1ccc(/C=N/NC(=O)c2cc(Cl)ccc2NC(=O)c2cccc(CN(C)CCCCCCN(C)Cc3cccc(C(=O)Nc4ccc(Cl)cc4C(=O)N/N=C/c4ccc(C)cc4)c3)c2)cc1` [Compound 706, N1-[4-Chloro-2-({2-[(E)-1-(4-methylphenyl)methylidene]hydrazino}carbonyl}phenyl}-3-{[{6-[(3-{[4-chloro-2-({2-[(E)-1-(4-methylphenyl)methylidene]hydrazino}carbonyl}-anilino}carbonyl}benzyl}(methyl)amino)hexyl)(methyl)amino]methyl]-benzamide] displayed an inhibition at 300 µM of 47.8%.

On to `O=C(Nc1ccc(Cl)cc1C(=O)N/N=C/c1ccc(Cl)c(C(F)(F)F)c1)c1cccc(CSCc2ccco2)c1` [Compound 700, N-[4-Chloro-2-(4-chloro-3-trifluoromethyl-benzylidene-hydrazinocarbonyl)-phenyl]-3-(furan-2-ylmethylsulfanylmethyl)-benzamide], for which the inhibition at 300 µM was 40.3%.

Compound `CN(CCCN(C)Cc1cccc(C(=O)Nc2ccc(Cl)cc2C(=O)N/N=C/c2ccc(F)cc2)c1)Cc1cccc(C(=O)Nc2ccc(Cl)cc2C(=O)N/N=C/c2ccc(F)cc2)c1` [Compound 701, N1-[4-Chloro-2-({2-[(E)-1-(4-fluorophenyl)methylidene]-hydrazino}carbonyl}phenyl}-3-{[{3-[(3-{[4-chloro-2-([2-[(E)-1-(4-fluorophenyl)methylidene]hydrazino}carbonyl}anilino}carbonyl}benzyl}-(methyl)amino)propyl)(methyl)amino]methyl]benzamide] registered an inhibition at 300 µM of 54%.
